In ChEMBL document CHEMBL1177832, “One unique steroidal sapogenin obtained through the microbial transformation of ruscogenin by Phytophthora cactorum ATCC 32134 and its potential inhibitory effect on tissue factor (TF) procoagulant activity” (Bioorg Med Chem Lett, 2010):

System: THP-1
Assay: Anticoagulant activity in human THP1 cells assessed as inhibition of TNF-alpha-stimulated tissue factor expression incubated 1 hr before TNFalpha challenge measured after 5 hrs
Assay type: functional, cell-based

Row | IC50 | Compound
1 | 290 nM | C[C@@H]1CC[C@@]2(OC1)O[C@H]1C[C@H]3[C@@H]4CCC5=CC(=O)C[C@@H](O)[C@]5(C)[C@H]4CC[C@]3(C)[C@H]1[C@@H]2C
2 | 1210 nM | COc1cc(/C=C/C(=O)CC(=O)/C=C/c2ccc(O)c(OC)c2)ccc1O [CURCUMIN]
3 | 6960 nM | C[C@@H]1CC[C@@]2(OC1)O[C@H]1C[C@H]3[C@@H]4CC=C5C[C@@H](O)CC[C@]5(C)[C@H]4CC[C@]3(C)[C@H]1[C@@H]2C [DISOGENIN]

Row | Compound | IC50
4 | C[C@@H]1CC[C@@]2(OC1)O[C@H]1C[C@H]3[C@@H]4CC=C5C[C@@H](O)C[C@@H](O)[C@]5(C)[C@H]4CC[C@]3(C)[C@H]1[C@@H]2C [RUSCOGENIN] | 2270 nM
5 | C[C@H]1CC[C@@]2(OC1)O[C@H]1C[C@H]3[C@@H]4CC[C@@H]5C[C@@H](O)CC[C@]5(C)[C@H]4CC[C@]3(C)[C@H]1[C@@H]2C [SARSASAPOGENIN] | 3300 nM
